In patent US20220275025A1, “BONE REMODELING REGULATORY PEPTIDES AND APPLICATION THEREOF” (THE SECOND XIANGYA HOSPITAL OF CENTRAL SOUTH UNIVERSITY, priority 2019, published 2022):
Square brackets hold non-standard residues; d marks the D form. Ends that are not written are not given here. Peptide text beside a SMILES is read from it. Hyp = O=C(O)[C@@H]1C[C@@H](O)CN1

Legend:
Primary BMMs [1] = test: Cytotoxicity experiment, CCK-8 kit; format: cell-based, mouse; settings: 0, 1, 10, 100, 200, 500, 800, 1000, and 1500 μg/mL, 24 and 48 hours
Procedure: (§1) 1) Bilateral femurs and tibias of wild-type female mice were aseptically isolated, and bone marrow cells were obtained by repeatedly washing bone marrow cavities with culture medium. After culturing in α-MEM complete medium containing M-CSF (30 ng/mL) for 24-hour, nonadherent cells were suctioned, centrifuged, and resuspended, and then cultured in the α-MEM complete medium containing M-CSF (30 ng/mL) for 3 days to obtain adherent mouse primary bone marrow mononuclear macrophages (osteoclast precursor cells). Osteoclast precursor cells were conducted by M-CSF (50 ng/mL) and RANKL (100 ng/mL) to obtain osteoclast and identified by TRAP staining (FIG. 1A). The expression of the collagen receptor OSCAR on osteoclast precursor cells and osteoclasts were determined by immunofluorescence (FIG. 1B) and Western blot (FIG. 1C).
1) Primary BMMs were cultured in vitro according to the method in Part 1 above, the A1-1/A1-4-1 collagen peptide was taken as an example for carrying out the cytotoxicity experiment. Primary BMMs were treated with different concentrations (0, 1, 10, 100, 200, 500, 800, 1000, and 1500 μg/mL) of collagen peptide for 24 and 48 hours, and the cytotoxicity was determined by CCK-8 kit.

mOSCAR = molecular target: T1, mOSCAR (Mus musculus, UniProt Q8VBT3); test: Solid-phase binding experiment of collagen peptides with mOSCAR-His fusion protein; settings: peptide coated on 96-well plate, mOSCAR-His 37° C. 3 hours, absorbance at 492 nm
T1 construct: The extracellular domains of the mOSCAR were amplified by RT-PCR and inserted with expression vectors of His tag fusion proteins; made in house; host or cells: HEK293T cells
T1 sequence (Q8VBT3 19-231 limits assumed): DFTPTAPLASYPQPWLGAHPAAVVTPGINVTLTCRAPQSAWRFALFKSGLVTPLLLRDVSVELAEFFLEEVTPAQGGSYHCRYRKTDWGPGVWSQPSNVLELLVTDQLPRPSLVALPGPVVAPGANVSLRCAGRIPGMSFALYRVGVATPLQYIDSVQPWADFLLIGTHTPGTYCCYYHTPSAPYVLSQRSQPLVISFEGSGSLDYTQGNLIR
Procedure: 1) The extracellular domains of the mOSCAR were amplified by RT-PCR and inserted with expression vectors of His tag fusion proteins. Then, the constructed vectors were transfected into HEK293T cells for expression, and mOSCAR-His fusion protein were purified by ion-exchange chromatography and molecular sieve chromatography.
2) Collagen peptides were dissolved with 10 mM acetic acid and wrapped to a 96-well microtitration plate overnight. After being sealed in phosphate buffer containing bovine serum albumin at room temperature for 1 hour, mOSCAR-His fusion protein was added and incubated at 37° C. for 3 hours. Then, horseradish peroxidase-labeled goat anti-mouse IgG antibody that capable of reacting specifically with His added and incubated at room temperature for 1 hour. The binding mOSCAR-His fusion protein was detected by O-phenylenediamine dihydrochloride. The reaction was terminated by 3 M H2SO4, and the absorbance at 492 nm was measured. It was confirmed that the type II collagen peptide (OSC^pep) and 4 segments of type I collagen peptides (A1-1, A1-2-1, A1-4-1, A1-5-3) could bind to the mOSCAR (FIG. 5).

Primary pre-osteoblasts = test: Osteoblast differentiation, ALP staining; format: cell-based, mouse
Procedure: 2) After skulls of the wild-type mice were aseptically isolated, cells were isolated by collagenase digestion and nucleated cells were obtained by density gradient centrifugation. Cells were induced to differentiate into osteoblasts by medium containing 10 mM β-sodium glycerophosphate, 50 μM vitamin C and 10^−7 M dexamethasone and identified by ALP staining (FIG. 1D). The expression of the collagen receptor OSCAR on pre-osteoblasts induced for 0th, 7th, 14th, 21st, and 35th day and MLO-Y4 bone cell lines was determined by immunohistochemistry (FIG. 1E) and Western blot (FIG. 1F).
4) Primary pre-osteoblasts were cultured in vitro according to the method in Part 1 above. Then, cells were treated with different concentrations of 5 segments of collagen peptides, and induced to differentiate into osteoblast by 10 mM […], 50 μM vitamin C and 10^−7 M dexamethasone at the same time. The effect of the collagen peptides on osteoblast differentiation was verified by ALP staining. It was confirmed that the bone remodeling regulatory peptides could inhibit osteoblast differentiation and bone formation at low concentration and promote osteoblast differentiation and bone formation at high concentration (FIG. 6C). […]

Primary BMMs [2] = test: Osteoclast differentiation induced by M-CSF and RANKL, TRAP staining; format: cell-based, mouse
Procedure: as §1
2) Primary BMMs were treated with different concentrations of 5 collagen peptides, and induced to differentiate into osteoclasts by M-CSF and RANKL. The effect of different concentrations of collagen peptides on osteoclast differentiation was verified by TRAP staining. It was confirmed that all of the bone remodeling regulatory peptides could promote osteoclast differentiation at low concentration and inhibit osteoclast differentiation at high concentration (FIG. 6A).

osteoclasts = test: Bone resorption of osteoclasts in peptide-primary BMMs-bone slice culture system, WGA staining; format: cell-based, mouse
Source text: 3) Different concentrations of bone remodeling regulatory peptides-primary BMMs-bone slice culture system was constructed by using the above-mentioned method, and the cells in the system were induced to differentiate into osteoclasts by M-CSF and RANKL at the same time. The effect of collagen peptides on bone resorption of osteoclasts was verified by wheat germ agglutinin (WGA) staining. It was confirmed that all of the bone remodeling regulatory peptides could promote bone resorption of osteoclasts at low concentration and inhibit bone resorption of osteoclasts at high concentration (FIG. 6B).

Row | Compound | cytotoxicity (Primary BMMs [1]) | binding to the mOSCAR (mOSCAR) | other results
1 | C[C@H](NC(=O)[C@H](Cc1ccccc1)NC(=O)CNC(=O)[C@H](C)NC(=O)[C@@H]1CCCN1C(=O)CNC(=O)[C@@H]1C[C@@H](O)CN1C(=O)[C@@H]1CCCN1C(=O)CN)C(=O)O [A1-4-1, Gly-Pro-Pro-Gly-Pro-Ala-Gly-Phe-Ala] (H-GP[Hyp]GPAGFA-OH) | no toxic effect | could bind | 
2 | C[C@H](NC(=O)CN)C(=O)N1C[C@H](O)C[C@H]1C(=O)NCC(=O)N1CCC[C@H]1C(=O)N[C@@H](CCC(N)=O)C(=O)NCC(=O)N[C@@H](Cc1ccccc1)C(=O)N[C@@H](CCC(N)=O)C(=O)O [A1-1, Gly-Ala-Pro-Gly-Pro-Gln-Gly-Phe-Gln] (H-GA[Hyp]GPQGFQ-OH) | no toxic effect | could bind | 
3 | Gly-Pro-Pro-Gly-Ala-Thr-Gly-Phe-Pro (GP[Hyp]GATGFP) [A1-5-3] |  | could bind | 
4 | Gly-Ala-Pro-Gly-Ala-Pro-Gly-Ser-Gln (GA[Hyp]GA[Hyp]GSQ) [A1-2-1] |  | could bind | 
5 | Gly-Ala-Pro-Gly-Pro-Ala-Gly-Phe-Ala (GA[Hyp]GPAGFA) [OSC^pep] |  | could bind | concentration that inhibits osteoblast differentiation and bone formation (Primary pre-osteoblasts): < 8000 µg/mL; concentration that promotes osteoblast differentiation and bone formation (Primary pre-osteoblasts): ≥ 8000 µg/mL; concentration that inhibits osteoclast differentiation (Primary BMMs [2]; high concentration): ≥ 8000 µg/mL; concentration that promotes osteoclast differentiation (Primary BMMs [2]; low concentration): < 8000 µg/mL; concentration that inhibits bone resorption (osteoclasts; high concentration): ≥ 8000 µg/mL; concentration that promotes bone resorption (osteoclasts; low concentration): < 8000 µg/mL
